Experimental findings from patent US8044079B2, “Substituted oxindole derivatives, medicaments containing said derivatives and use thereof” (Abbott GmbH & Co. KG, priority 2005, dated 2011) are described below.

The target in this experiment is T1, human vasopressin V1b receptor (Homo sapiens, UniProt P47901).
T1 construct: expressed in transfected cells; host or cells: CHO-K1 (cell line hV1b_3H2_CHO), membrane preparation
T1 sequence (P47901 1-424): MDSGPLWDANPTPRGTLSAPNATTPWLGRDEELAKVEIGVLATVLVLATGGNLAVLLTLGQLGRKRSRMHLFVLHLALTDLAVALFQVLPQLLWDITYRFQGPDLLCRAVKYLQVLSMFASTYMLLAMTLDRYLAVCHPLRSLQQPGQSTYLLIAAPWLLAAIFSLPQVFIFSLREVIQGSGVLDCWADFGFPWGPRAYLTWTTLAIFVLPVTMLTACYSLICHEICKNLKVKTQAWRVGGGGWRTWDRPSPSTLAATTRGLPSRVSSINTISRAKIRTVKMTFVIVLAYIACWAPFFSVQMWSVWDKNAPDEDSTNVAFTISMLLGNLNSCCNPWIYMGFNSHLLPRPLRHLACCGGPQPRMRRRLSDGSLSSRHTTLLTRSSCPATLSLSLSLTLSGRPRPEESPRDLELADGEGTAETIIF
Briefly: Vasopressin V1b receptor binding test. Particulars: membranes of CHO-K1 cells with human V1b receptor, displacement of 1.5 nM 3H-AVP; for compounds with more than one stereogenic center the diastereomer with greater affinity. The essentials: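 Affinity constants (Ki) came from nonlinear regression of triplicate scintillation counts after filtration separated bound from free radioligand. Compounds competed at human V1b membranes for 60 min, room temperature, in pH 7.4 tris/MgCl2/BSA buffer with 2% DMSO; 1 μM AVP defined nonspecific binding.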

Molecules are shown by their SMILES.

For orientation: Ki means the dissociation constant of the complex between target and ligand, obtained from inhibition or displacement. Consider `COc1cc(CN2CCN(C)CC2)ccc1C1(N2C[C@H](O)C[C@H]2c2ncco2)C(=O)N(S(=O)(=O)c2ccc(C#N)cc2)c2ccc(Cl)cc21` (stereo partly drawn) [Example 180, 5-Chloro-3-((2S,4R)-4-hydroxy-2-oxazol-2-yl-pyrrolidin-1-yl)-3-[2-methoxy-4-(4-methylpiperazin-1-ylmethyl)phenyl]-1-(4-cyanobenzenesulfonyl)-1,3-dihydroindol-2-one], for which the Ki is less than 0.01 µM.

In turn, `CCN1CCN(Cc2ccc(C3(N4C[C@H](O)C[C@H]4c4ncco4)C(=O)N(S(=O)(=O)c4ccc(C#N)cc4)c4ccc(Cl)cc43)c(OC)c2)CC1` (stereo partly drawn) [Example 181, 5-Chloro-3-[4-(4-ethylpiperazin-1-ylmethyl)-2-methoxyphenyl]-3-((2S,4R)-4-hydroxy-2-oxazol-2-yl-pyrrolidin-1-yl)-1-(4-cyanobenzenesulfonyl)-1,3-dihydroindol-2-one] had a Ki of less than 0.01 µM.

Turning to `COc1cc(CN(C)C)ccc1C1(N2C[C@H](O)C[C@H]2c2ncco2)C(=O)N(S(=O)(=O)c2ccc(C#N)cc2)c2ccc(Cl)cc21` (stereo partly drawn) [Example 182, 5-Chloro-3-(4-dimethylaminomethyl-2-methoxyphenyl)-3-((2S,4R)-4-hydroxy-2-oxazol-2-yl-pyrrolidin-1-yl)-1-(4-cyanobenzenesulfonyl)-1,3-dihydroindol-2-one], the Ki lay in the range of 0.01 to 0.1 µM.

Take `COc1cc(CN2CCCC2)ccc1C1(N2C[C@H](O)C[C@H]2c2ncco2)C(=O)N(S(=O)(=O)c2ccc(C#N)cc2)c2ccc(Cl)cc21` (stereo partly drawn) [Example 183, 5-Chloro-3-((2S,4R)-4-hydroxy-2-oxazol-2-yl-pyrrolidin-1-yl)-3-(2-methoxy-4-(pyrrolidin-1-ylmethyl)phenyl)-1-(4-cyanobenzenesulfonyl)-1,3-dihydroindol-2-one]: the inhibition constant Ki fell in the range of 0.01 to 0.1 µM.

The compound `COc1ccc(S(=O)(=O)N2C(=O)C(c3cc(CN4CCN(C)CC4)cc4c3OCO4)(N3CCC[C@H]3c3ncco3)c3cc(Cl)ccc32)cc1` (stereo partly drawn) [Example 184, 5-Chloro-1-(4-methoxybenzenesulfonyl)-3-[6-(4-methylpiperazin-1-ylmethyl)benzo[1,3]dioxol-4-yl]-3-((S)-2-oxazol-2-yl-pyrrolidin-1-yl)-1,3-dihydroindol-2-one] had a Ki of less than 0.01 µM.

For the compound `CNCc1cc2c(c(C3(N4CCC[C@H]4c4ncco4)C(=O)N(S(=O)(=O)c4ccc(OC)cc4)c4ccc(Cl)cc43)c1)OCO2` (stereo partly drawn) [Example 185, 5-Chloro-1-(4-methoxybenzenesulfonyl)-3-(6-methylaminomethylbenzo[1,3]dioxol-4-yl)-3-((S)-2-oxazol-2-yl-pyrrolidin-1-yl)-1,3-dihydroindol-2-one], the Ki lay within 0.01 to 0.1 µM.

Take `COc1ccc(S(=O)(=O)N2C(=O)C(c3cc(CN(C)C)cc4c3OCO4)(N3CCC[C@H]3c3ncco3)c3cc(Cl)ccc32)cc1` (stereo partly drawn) [Example 186, 5-Chloro-3-(6-dimethylaminomethylbenzo[1,3]dioxol-4-yl)-1-(4-methoxybenzenesulfonyl)-3-((S)-2-oxazol-2-yl-pyrrolidin-1-yl)-1,3-dihydroindol-2-one]: the Ki is 0.01 to 0.1 µM.

For the compound `COc1ccc(S(=O)(=O)N2C(=O)C(c3cc(CNC(C)C)cc4c3OCO4)(N3CCC[C@H]3c3ncco3)c3cc(Cl)ccc32)cc1` (stereo partly drawn) [Example 187, 5-Chloro-3-[6-(isopropylaminomethyl)benzo[1,3]dioxol-4-yl]-1-(4-methoxybenzenesulfonyl)-3-((S)-2-oxazol-2-yl-pyrrolidin-1-yl)-1,3-dihydroindol-2-one], the Ki was less than 0.01 µM.

`CCNCc1cc2c(c(C3(N4CCC[C@H]4c4ncco4)C(=O)N(S(=O)(=O)c4ccc(OC)cc4)c4ccc(Cl)cc43)c1)OCO2` (stereo partly drawn) [Example 188, 5-Chloro-3-(6-ethylaminomethylbenzo[1,3]dioxol-4-yl)-1-(4-methoxybenzenesulfonyl)-3-((S)-2-oxazol-2-yl-pyrrolidin-1-yl)-1,3-dihydroindol-2-one] registered a Ki of less than 0.01 µM.

On to `CCNCc1ccc(C2(N3C[C@H](O)C[C@H]3c3ncco3)C(=O)N(S(=O)(=O)c3ccc(C#N)cc3)c3ccc(Cl)cc32)c(OC)c1` (stereo partly drawn) [Example 189, 5-Chloro-3-(4-ethylaminomethyl-2-methoxyphenyl)-3-((2S,4R)-4-hydroxy-2-oxazol-2-yl-pyrrolidin-1-yl)-1-(4-cyanobenzenesulfonyl)-1,3-dihydroindol-2 one], for which the Ki lay within 0.01 to 0.1 µM.

With `CNCc1ccc(C2(N3C[C@H](O)C[C@H]3c3ncco3)C(=O)N(S(=O)(=O)c3ccc(C#N)cc3)c3ccc(Cl)cc32)c(OC)c1` (stereo partly drawn) [Example 190, 5-Chloro-3-((2S,4R)-4-hydroxy-2-oxazol-2-yl-pyrrolidin-1-yl)-3-(2-methoxy-4-methylaminomethylphenyl)-1-(4-cyanobenzenesulfonyl)-1,3-dihydroindol-2 one], the Ki lay within 0.01 to 0.1 µM.

In the case of `COc1ccc(S(=O)(=O)N2C(=O)C(c3cc(CN4CCC(O)CC4)ccc3OC)(N3CCC[C@H]3c3ncco3)c3cc(C#N)ccc32)cc1` (stereo partly drawn) [Example 191, 5-Cyano-3-[5-(4-hydroxypiperidin-1-ylmethyl)-2-methoxyphenyl]-1-(4-methoxybenzenesulfonyl)-3-((S)-2-oxazol-2-yl-pyrrolidin-1-yl)-1,3-dihydroindol-2-one], the Ki was less than 0.01 µM.

In turn, `COc1ccc(S(=O)(=O)N2C(=O)C(c3cccc(CN4CCN(C)CC4)c3OC)(N3CCC[C@H]3c3ncco3)c3cc(Cl)ccc32)cc1` (stereo partly drawn) [Example 192, 5-Chloro-1-(4-methoxybenzenesulfonyl)-3-[2-methoxy-3-(4-methylpiperazin-1-ylmethyl)phenyl]-3-((S)-2-oxazol-2-yl-pyrrolidin-1-yl)-1,3-dihydroindol-2-one] yielded an inhibition constant Ki of less than 0.01 µM.

On to `CCN1CCN(Cc2ccc(C3(N4CCC[C@H]4c4ncco4)C(=O)N(S(=O)(=O)c4ccc(OC)cc4)c4cc(F)c(Cl)cc43)c(OC)c2)CC1` (stereo partly drawn) [Example 193, 5-Chloro-3-[4-(4-ethylpiperazin-1-ylmethyl)-2-methoxyphenyl]-6-fluoro-1-(4-methoxybenzenesulfonyl)-3-((S)-2-oxazol-2-yl-pyrrolidin-1-yl)-1,3-dihydroindol-2-one], for which the Ki was less than 0.01 µM.

Consider `COc1ccc(S(=O)(=O)N2C(=O)C(c3cccc(CN(C)C)c3OC)(N3CCC[C@H]3c3ncco3)c3cc(Cl)ccc32)cc1` (stereo partly drawn) [Example 194, 5-Chloro-3-(3-dimethylaminomethyl-2-methoxyphenyl)-1-(4-methoxybenzenesulfonyl)-3-((S)-2-oxazol-2-yl-pyrrolidin-1-yl)-1,3-dihydroindol-2-one], for which the inhibition constant (Ki) lay within 0.01 to 0.1 µM.

Consider `COc1ccc(S(=O)(=O)N2C(=O)C(c3cccc(CN4CCCC4)c3OC)(N3CCC[C@H]3c3ncco3)c3cc(Cl)ccc32)cc1` (stereo partly drawn) [Example 195, 5-Chloro-1-(4-methoxybenzenesulfonyl)-3-(2-methoxy-3-pyrrolidin-1-ylmethylphenyl)-3-((S)-2-oxazol-2-yl-pyrrolidin-1-yl)-1,3-dihydroindol-2-one], for which the inhibition constant (Ki) lay within 0.1 to 1 µM.

On to `COc1cc(CN2CCN(CCO)CC2)ccc1C1(N2CCC[C@H]2c2ncco2)C(=O)N(S(=O)(=O)c2ccc(C#N)cc2)c2ccc(Cl)cc21` (stereo partly drawn) [Example 197, 5-Chloro-1-(4-cyanobenzenesulfonyl)-3-{4-[4-(2-hydroxyethyl)piperazin-1-ylmethyl]-2-methoxyphenyl}-3-((S)-2-oxazol-2-yl-pyrrolidin-1-yl)-2,3-dihydroindol-2-one], for which the inhibition constant (Ki) lay within 0.01 to 0.1 µM.
